Source: ChEMBL document CHEMBL4024706 (Eur J Med Chem, 2017)

What was measured:
[1] = tested on: Tyrosine-protein kinase ABL1 (Homo sapiens), P00519 [Q252H]; experiment: Inhibition of human non-phosphorylated ABL1 Q252H mutant (S229 to K512 residues) expressed in mammalian expression system assessed as residual activity at 1 uM by Kinomescan method relative to control
[2] = tested on: ALK tyrosine kinase receptor (Homo sapiens), Q9UM73 [C1156Y]; experiment: Inhibition of […] human partial length ALK C1156Y mutant (I1088 to E1409 residues) expressed in mammalian expression system assessed as residual activity at 1 uM by Kinomescan method relative to control
[3] = target: Serine/threonine-protein kinase BRSK2 (Homo sapiens) (UniProt Q8IWQ3); experiment: Inhibition of wild-type human full length BRSK2 (M1 to L674 residues) expressed in bacterial expression system assessed as residual activity at 1 uM by Kinomescan method relative to control
[4] = target: Cyclin-dependent kinase 19 (Homo sapiens) (UniProt Q9BWU1); experiment: Inhibition of wild-type human partial length CDK11 (M1 to N360 residues) expressed in bacterial expression system assessed as residual activity at 1 uM by Kinomescan method relative to control
[5] = target: Cyclin-dependent kinase 7 (Homo sapiens) (UniProt P50613); experiment: Inhibition of wild-type human full length CDK7 (M1 to L344 residues) expressed in mammalian expression system assessed as residual activity at 1 uM by Kinomescan method relative to control
[6] = target: Epidermal growth factor receptor (Homo sapiens, UniProt P00533); experiment: Inhibition of wild-type human partial length EGFR (R669 to V1011 residues) expressed in bacterial expression system assessed as residual activity at 1 uM by Kinomescan method relative to control
[7] = tested on: Epidermal growth factor receptor (Homo sapiens), P00533 [UNDEFINED MUTATION]; experiment: Inhibition of human partial length EGFR L747-T751del/Sins mutant expressed in bacterial expression system assessed as residual activity at 1 uM by Kinomescan method relative to control
[8] = tested on: Epidermal growth factor receptor (Homo sapiens), P00533 [L858R,T790M]; experiment: Inhibition of human partial length EGFR L858R/T790M double mutant (R669 to V1011 residues) expressed in mammalian expression system assessed as residual activity at 1 uM by Kinomescan method relative to control
[9] = target: Ephrin type-A receptor 1 (Homo sapiens) (UniProt P21709); experiment: Inhibition of wild-type human partial length EPHA1 (V588 to I913 residues) expressed in bacterial expression system assessed as residual activity at 1 uM by Kinomescan method relative to control
[10] = target: Ephrin type-A receptor 2 (Homo sapiens) (UniProt P29317); experiment: Inhibition of wild-type human partial length EPHA2 (T593 to V891 residues) expressed in bacterial expression system assessed as residual activity at 1 uM by Kinomescan method relative to control
[11] = target: Ephrin type-A receptor 5 (Homo sapiens) (UniProt P54756); experiment: Inhibition of wild-type human partial length EPHA5 (T627 to V930 residues) expressed in bacterial expression system assessed as residual activity at 1 uM by Kinomescan method relative to control
[12] = target: Ephrin type-B receptor 4 (Homo sapiens) (UniProt P54760); experiment: Inhibition of wild-type human partial length EPHB4 (H585 to G892 residues) expressed in bacterial expression system assessed as residual activity at 1 uM by Kinomescan method relative to control
[13] = target: Tyrosine-protein kinase Fgr (Homo sapiens) (UniProt P09769); experiment: Inhibition of wild-type human partial length FGR (L233 to T529 residues) expressed in bacterial expression system assessed as residual activity at 1 uM by Kinomescan method relative to control
[14] = tested on: Receptor-type tyrosine-protein kinase FLT3 (Homo sapiens), P36888 [D835H]; experiment: Inhibition of human partial length FLT3 D835H mutant (V592 to Y969 residues) expressed in bacterial expression system assessed as residual activity at 1 uM by Kinomescan method relative to control
[15] = target: Receptor-type tyrosine-protein kinase FLT3 (Homo sapiens) (UniProt P36888); experiment: Inhibition of wild-type human partial length autoinhibited FLT3 (H564 to Y969 residues) expressed in mammalian expression system assessed as residual activity at 1 uM by Kinomescan method relative to control
[16] = target: Rhodopsin kinase GRK7 (Homo sapiens) (UniProt Q8WTQ7); experiment: Inhibition of wild-type human full length GRK7 (M1 to L553 residues) expressed in mammalian expression system assessed as residual activity at 1 uM by Kinomescan method relative to control
[17] = target: Glycogen synthase kinase-3 alpha (Homo sapiens) (UniProt P49840); experiment: Inhibition of wild-type human full length GSK3A (M1 to S483 residues) expressed in bacterial expression system assessed as residual activity at 1 uM by Kinomescan method relative to control
[18] = target: Mitogen-activated protein kinase kinase kinase kinase 3 (Homo sapiens) (UniProt Q8IVH8); experiment: Inhibition of wild-type human partial length MAP4K3 (M1 to D301 residues) expressed in bacterial expression system assessed as residual activity at 1 uM by Kinomescan method relative to control
[19] = target: MAP/microtubule affinity-regulating kinase 4 (Homo sapiens) (UniProt Q96L34); experiment: Inhibition of wild-type human partial length MARK4 (K29 to G340 residues) expressed in bacterial expression system assessed as residual activity at 1 uM by Kinomescan method relative to control
[20] = target: Misshapen-like kinase 1 (Homo sapiens) (UniProt Q8N4C8); experiment: Inhibition of wild-type human partial length MINK (M1 to K312 residues) expressed in mammalian expression system assessed as residual activity at 1 uM by Kinomescan method relative to control
[21] = target: Mitogen-activated protein kinase kinase kinase 14 (Homo sapiens) (UniProt Q99558); experiment: Inhibition of wild-type human partial length NIK (L318 to P947 residues) expressed in mammalian expression system assessed as residual activity at 1 uM by Kinomescan method relative to control
[22] = target: Cyclin-dependent kinase 14 (Homo sapiens) (UniProt O94921); experiment: Inhibition of wild-type human full length PFTK1 (M1 to H451 residues) expressed in bacterial expression system assessed as residual activity at 1 uM by Kinomescan method relative to control
[23] = target: Serine/threonine-protein kinase PLK2 (Homo sapiens) (UniProt Q9NYY3); experiment: Inhibition of wild-type human partial length PLK2 (H58 to F354 residues) expressed in mammalian expression system assessed as residual activity at 1 uM by Kinomescan method relative to control
[24] = target: Uncharacterized serine/threonine-protein kinase SBK3 (Homo sapiens) (UniProt P0C264); experiment: Inhibition of wild-type human partial length SgK110 (L22 to R329 residues) expressed in bacterial expression system assessed as residual activity at 1 uM by Kinomescan method relative to control
[25] = target: SRSF protein kinase 1 (Homo sapiens) (UniProt Q96SB4); experiment: Inhibition of wild-type human full length SRPK1 (M1 to S655 residues) expressed in bacterial expression system assessed as residual activity at 1 uM by Kinomescan method relative to control
Chain of SRSF protein kinase 1 (Homo sapiens) (Q96SB4 whole entry, the tested form may be a part): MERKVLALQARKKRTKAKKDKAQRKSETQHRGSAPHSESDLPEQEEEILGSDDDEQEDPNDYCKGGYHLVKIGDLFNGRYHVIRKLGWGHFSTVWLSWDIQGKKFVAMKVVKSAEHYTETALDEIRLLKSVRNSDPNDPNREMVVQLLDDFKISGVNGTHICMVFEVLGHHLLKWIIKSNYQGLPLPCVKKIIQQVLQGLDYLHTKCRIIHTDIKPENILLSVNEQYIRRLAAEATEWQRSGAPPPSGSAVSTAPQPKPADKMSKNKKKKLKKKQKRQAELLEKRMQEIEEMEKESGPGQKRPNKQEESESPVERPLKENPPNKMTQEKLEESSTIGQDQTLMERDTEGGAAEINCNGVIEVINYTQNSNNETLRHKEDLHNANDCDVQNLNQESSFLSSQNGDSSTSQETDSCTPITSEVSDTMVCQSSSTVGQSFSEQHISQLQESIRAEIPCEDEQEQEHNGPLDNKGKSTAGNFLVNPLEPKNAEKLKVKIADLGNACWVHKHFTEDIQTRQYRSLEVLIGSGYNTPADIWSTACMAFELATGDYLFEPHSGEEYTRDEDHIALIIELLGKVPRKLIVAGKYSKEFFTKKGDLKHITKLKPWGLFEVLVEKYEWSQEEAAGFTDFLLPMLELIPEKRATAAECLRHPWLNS

Chain of Glycogen synthase kinase-3 alpha (Homo sapiens) (P49840 2-483 limits assumed): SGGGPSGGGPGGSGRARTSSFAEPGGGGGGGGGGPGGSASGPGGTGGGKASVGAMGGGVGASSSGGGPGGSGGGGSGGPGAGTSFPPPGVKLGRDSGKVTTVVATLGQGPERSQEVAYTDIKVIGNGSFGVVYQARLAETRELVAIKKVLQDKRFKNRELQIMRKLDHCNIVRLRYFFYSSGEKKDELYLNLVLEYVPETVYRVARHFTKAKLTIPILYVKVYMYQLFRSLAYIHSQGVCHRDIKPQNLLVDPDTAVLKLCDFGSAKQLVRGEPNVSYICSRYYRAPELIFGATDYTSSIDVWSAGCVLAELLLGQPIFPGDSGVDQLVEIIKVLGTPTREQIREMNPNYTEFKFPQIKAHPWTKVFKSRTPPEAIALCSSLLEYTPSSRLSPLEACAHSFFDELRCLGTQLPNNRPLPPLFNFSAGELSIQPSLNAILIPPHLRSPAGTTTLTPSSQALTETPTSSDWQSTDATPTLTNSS
Chain of Uncharacterized serine/threonine-protein kinase SBK3 (Homo sapiens) (P0C264 whole entry, the tested form may be a part): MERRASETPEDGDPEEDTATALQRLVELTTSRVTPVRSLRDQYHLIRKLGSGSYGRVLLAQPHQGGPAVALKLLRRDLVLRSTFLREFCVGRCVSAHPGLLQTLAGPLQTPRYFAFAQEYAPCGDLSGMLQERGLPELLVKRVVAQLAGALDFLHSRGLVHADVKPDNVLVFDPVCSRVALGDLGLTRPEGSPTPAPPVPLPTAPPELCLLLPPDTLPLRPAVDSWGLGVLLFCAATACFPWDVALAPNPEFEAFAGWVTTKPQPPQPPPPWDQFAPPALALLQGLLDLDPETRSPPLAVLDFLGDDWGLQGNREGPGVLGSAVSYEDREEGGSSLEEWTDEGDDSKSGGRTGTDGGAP
Chain of Misshapen-like kinase 1 (Homo sapiens) (Q8N4C8 whole entry, looked up, the tested form may be a part): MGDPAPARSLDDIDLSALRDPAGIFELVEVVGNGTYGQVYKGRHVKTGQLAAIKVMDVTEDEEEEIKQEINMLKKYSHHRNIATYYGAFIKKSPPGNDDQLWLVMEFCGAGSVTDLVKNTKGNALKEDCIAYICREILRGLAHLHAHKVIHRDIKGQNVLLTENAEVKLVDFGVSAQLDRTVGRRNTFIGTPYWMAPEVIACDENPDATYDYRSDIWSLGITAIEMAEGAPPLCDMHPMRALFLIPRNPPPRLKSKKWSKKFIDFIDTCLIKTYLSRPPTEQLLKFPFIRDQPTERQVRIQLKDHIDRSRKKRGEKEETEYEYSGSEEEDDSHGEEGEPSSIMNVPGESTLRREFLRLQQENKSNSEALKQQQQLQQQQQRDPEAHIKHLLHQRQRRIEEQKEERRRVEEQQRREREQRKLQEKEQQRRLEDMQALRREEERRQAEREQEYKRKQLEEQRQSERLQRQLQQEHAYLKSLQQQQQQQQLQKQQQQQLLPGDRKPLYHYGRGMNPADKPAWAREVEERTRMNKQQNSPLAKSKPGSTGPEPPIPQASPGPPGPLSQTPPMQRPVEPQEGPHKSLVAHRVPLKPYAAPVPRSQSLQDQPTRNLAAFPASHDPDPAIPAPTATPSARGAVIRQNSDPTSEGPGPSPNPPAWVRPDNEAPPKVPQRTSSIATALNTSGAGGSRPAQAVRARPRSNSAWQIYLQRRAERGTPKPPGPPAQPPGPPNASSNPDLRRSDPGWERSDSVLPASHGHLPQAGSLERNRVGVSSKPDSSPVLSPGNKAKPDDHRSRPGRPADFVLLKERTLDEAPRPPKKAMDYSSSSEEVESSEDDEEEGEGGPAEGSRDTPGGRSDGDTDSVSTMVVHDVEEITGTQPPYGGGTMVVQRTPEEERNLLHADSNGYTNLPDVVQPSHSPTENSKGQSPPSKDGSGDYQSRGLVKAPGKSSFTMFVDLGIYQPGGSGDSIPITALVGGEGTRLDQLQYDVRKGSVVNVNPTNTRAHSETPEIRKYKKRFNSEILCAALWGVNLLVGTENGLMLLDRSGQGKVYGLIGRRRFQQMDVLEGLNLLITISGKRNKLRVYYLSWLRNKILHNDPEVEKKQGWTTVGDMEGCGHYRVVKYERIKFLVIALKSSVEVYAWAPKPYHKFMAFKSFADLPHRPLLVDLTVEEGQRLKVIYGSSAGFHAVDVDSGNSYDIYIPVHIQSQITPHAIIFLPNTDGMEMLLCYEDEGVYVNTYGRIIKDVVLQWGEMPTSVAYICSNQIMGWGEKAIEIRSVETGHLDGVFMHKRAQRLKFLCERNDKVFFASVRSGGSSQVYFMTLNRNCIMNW
Chain of MAP/microtubule affinity-regulating kinase 4 (Homo sapiens) (Q96L34 whole entry, the tested form may be a part): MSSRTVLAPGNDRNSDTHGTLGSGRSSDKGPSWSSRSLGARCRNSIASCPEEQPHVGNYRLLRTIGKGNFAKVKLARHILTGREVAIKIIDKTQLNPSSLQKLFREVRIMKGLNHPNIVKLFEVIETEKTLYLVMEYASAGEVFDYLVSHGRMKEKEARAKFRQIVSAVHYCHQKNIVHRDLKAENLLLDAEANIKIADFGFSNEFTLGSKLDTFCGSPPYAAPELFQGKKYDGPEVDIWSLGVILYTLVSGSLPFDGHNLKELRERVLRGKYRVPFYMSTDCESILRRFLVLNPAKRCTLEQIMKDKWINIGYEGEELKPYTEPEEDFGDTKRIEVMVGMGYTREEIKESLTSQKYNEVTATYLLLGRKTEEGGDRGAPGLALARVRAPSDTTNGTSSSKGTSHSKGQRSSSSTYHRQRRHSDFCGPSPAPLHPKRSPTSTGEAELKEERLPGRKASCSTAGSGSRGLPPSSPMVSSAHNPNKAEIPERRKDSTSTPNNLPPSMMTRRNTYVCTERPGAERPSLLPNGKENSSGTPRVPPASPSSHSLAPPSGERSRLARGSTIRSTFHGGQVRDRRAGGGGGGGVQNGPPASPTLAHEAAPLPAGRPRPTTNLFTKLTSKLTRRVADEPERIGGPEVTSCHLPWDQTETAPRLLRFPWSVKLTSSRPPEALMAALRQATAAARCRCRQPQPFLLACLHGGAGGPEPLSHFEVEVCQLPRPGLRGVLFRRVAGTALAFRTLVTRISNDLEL
Chain of Serine/threonine-protein kinase PLK2 (Homo sapiens) (Q9NYY3 whole entry, looked up, the tested form may be a part): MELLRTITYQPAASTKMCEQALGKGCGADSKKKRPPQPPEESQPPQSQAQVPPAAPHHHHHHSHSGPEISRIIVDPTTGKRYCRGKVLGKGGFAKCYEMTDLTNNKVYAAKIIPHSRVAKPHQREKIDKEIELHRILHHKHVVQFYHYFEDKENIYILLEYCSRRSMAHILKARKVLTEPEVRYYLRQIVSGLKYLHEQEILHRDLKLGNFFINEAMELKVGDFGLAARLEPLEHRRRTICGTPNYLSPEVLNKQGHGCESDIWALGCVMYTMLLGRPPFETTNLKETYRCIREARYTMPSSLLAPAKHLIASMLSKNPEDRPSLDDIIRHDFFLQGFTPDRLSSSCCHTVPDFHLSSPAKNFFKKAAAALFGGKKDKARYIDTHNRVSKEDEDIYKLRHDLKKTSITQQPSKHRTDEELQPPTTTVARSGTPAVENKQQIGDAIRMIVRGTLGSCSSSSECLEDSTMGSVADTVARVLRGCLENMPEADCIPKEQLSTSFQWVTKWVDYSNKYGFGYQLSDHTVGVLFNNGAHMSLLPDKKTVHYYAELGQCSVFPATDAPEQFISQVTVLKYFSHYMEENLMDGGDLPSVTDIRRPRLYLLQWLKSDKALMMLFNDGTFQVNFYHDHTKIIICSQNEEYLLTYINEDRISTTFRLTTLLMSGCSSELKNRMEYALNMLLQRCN
Chain of Cyclin-dependent kinase 14 (Homo sapiens) (O94921 whole entry, the tested form may be a part): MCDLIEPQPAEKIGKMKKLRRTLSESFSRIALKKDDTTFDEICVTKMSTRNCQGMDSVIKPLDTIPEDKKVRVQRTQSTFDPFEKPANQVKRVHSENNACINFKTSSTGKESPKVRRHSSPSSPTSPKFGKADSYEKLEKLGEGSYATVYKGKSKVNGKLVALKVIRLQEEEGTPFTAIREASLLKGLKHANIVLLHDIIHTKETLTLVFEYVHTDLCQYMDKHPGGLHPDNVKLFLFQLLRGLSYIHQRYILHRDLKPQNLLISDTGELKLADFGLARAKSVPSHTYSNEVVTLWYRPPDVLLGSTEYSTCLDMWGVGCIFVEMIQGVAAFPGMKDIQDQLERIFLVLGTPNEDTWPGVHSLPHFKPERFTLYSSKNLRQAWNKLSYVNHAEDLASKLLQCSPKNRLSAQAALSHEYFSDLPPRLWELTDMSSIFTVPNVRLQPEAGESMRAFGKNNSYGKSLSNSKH

Compound: C=CC(=O)Nc1cc(Nc2cc(-c3cccc(NC(=O)c4ccc(C(C)(C)C)cc4)c3C)cn(C)c2=O)ccc1C(=O)N1CCOCC1
- Activity [1]: 100%
- Activity [2]: 94%
- Activity [3]: 92%
- Activity [4]: 100%
- Activity [5]: 89%
- Activity [6]: 92%
- Activity [7]: 100%
- Activity [8]: 89%
- Activity [9]: 100%
- Activity [10]: 87%
- Activity [11]: 92%
- Activity [12]: 88%
- Activity [13]: 77%
- Activity [14]: 100%
- Activity [15]: 100%
- Activity [16]: 94%
- Activity [17]: 100%
- Activity [18]: 95%
- Activity [19]: 91%
- Activity [20]: 82%
- Activity [21]: 86%
- Activity [22]: 93%
- Activity [23]: 100%
- Activity [24]: 77%
- Activity [25]: 100%
